Experimental data: patent US11420956B2, “Ureas having Androgen Receptor degradation activity and uses thereof” (ACCUTAR BIOTECHNOLOGY INC., priority 2019, dated 2022)

target: T1, androgen receptor (AR) (Homo sapiens, UniProt P10275, T878A); assay: AR degradation in LNCAP cells (Western blot); assay type: cell-based; conditions: 24 hours after administration
T1 construct: endogenous in cells; host or cells: LNCAP
T1 sequence (P10275 1-920 T878A): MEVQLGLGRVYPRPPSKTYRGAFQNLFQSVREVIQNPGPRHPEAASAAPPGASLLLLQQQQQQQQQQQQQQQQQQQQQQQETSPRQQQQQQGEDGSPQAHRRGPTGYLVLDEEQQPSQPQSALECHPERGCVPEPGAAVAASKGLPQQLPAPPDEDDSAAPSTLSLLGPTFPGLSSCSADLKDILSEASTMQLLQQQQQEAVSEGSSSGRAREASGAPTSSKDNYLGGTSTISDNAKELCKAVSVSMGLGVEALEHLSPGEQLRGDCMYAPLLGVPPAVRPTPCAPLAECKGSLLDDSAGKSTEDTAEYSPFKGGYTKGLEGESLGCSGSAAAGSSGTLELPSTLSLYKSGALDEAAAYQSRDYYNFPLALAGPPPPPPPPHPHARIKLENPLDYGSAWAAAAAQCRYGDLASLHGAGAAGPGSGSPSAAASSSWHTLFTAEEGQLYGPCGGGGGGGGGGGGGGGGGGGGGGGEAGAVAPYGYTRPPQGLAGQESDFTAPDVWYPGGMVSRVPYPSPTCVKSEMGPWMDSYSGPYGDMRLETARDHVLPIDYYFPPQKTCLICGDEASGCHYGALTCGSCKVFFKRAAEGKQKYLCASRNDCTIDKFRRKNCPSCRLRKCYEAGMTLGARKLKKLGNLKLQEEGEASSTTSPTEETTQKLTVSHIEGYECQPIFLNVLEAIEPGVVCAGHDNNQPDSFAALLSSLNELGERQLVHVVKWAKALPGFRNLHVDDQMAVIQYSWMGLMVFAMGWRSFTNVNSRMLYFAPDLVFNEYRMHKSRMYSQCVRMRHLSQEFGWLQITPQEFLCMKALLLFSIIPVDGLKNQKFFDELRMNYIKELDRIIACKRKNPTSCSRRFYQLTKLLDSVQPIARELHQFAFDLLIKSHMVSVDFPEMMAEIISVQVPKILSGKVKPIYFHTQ
Protocol: LNCAP, VCAP and 22Rv1 cells were plated in 24-well plates at 1.5×10E5 cells/well in the RPMI growth medium containing 10% FBS and 1% Penicillin Streptomycin, and then incubated at 37° C. overnight. The following day, the test compound was administered to the cells by using 1000× compound stock solution prepared in DMSO at various concentrations. After administration of the compound, the cells were then incubated at 37° C. for 24 hours. Upon completion, the cells were washed with PBS and protein was collected in Laemmli sample buffer (1×; VWR International). Proteins in cell lysate were separated by SDS-PAGE and transferred to Odyssey nitrocellulose membranes (Licor) with iblot® dry blotting transfer system (ThermoFisher). Nonspecific binding was blocked by incubating membranes with Intercept Blocking Buffer (Licor) for 1 hour at room temperature with gentle shaking. The membranes were then incubated overnight at 4° C. with Primary antibodies rabbit anti-AR (1:1,000, Cell Signaling, 5153) and mouse anti-GAPDH (1:5,000, Santa Cruz Biotechnology, sc-47724) diluted in Intercept Blocking Buffer containing 0.1% Tween 20. After washing 3 times with TBS-T, the membranes were incubated with IRDye® […] goat anti-mouse IgG (1:20,000, Licor) or IRDye® […] goat anti-rabbit IgG (1:20,000, Licor) for 1 hour. After TBS-T washes, membranes were rinsed in TBS and scanned on Odyssey® CLx Imaging System (Licor). The bands were quantified using Image Studio™ Software (Licor).
Tables 5 and 6 summarize the androgen receptor (AR) degradative activity of exemplary compounds in LNCAP, VCAP and 22Rv1 cell lines 24 hours after administration. DC50: compound concentration needed for 50% target protein degradation.

Compound	DC50 [nM]
C[C@@H]1CN(c2ccc(C#N)c(Cl)c2)[C@@H](C)CN1C(=O)Nc1ccc(OCCCCN(C)C2CC(Oc3ccc4c(c3)C(=O)N(C3CCC(=O)NC3=O)C4=O)C2)nc1 (stereo partly drawn) [Compound 1-8, (2R,5S)-4-(3-chloro-4-cyanophenyl)-N-(6-(4-(((1r,3r)-3-((2-(2,6-dioxopiperidin-3-yl)-1,3-dioxoisoindolin-5-yl)oxy)cyclobutyl)(methyl)amino)butoxy)pyridin-3-yl)-2,5-dimethylpiperazine-1-carboxamide]	≤ 10
C[C@@H]1CN(c2ccc(C#N)c(Cl)c2)[C@@H](C)CN1C(=O)Nc1ccc(N2CCC(CN(C)C3CC(Oc4ccc5c(c4)C(=O)N(C4CCC(=O)NC4=O)C5=O)C3)CC2)nc1 (stereo partly drawn) [Compound 1-9, (2R,5S)-4-(3-chloro-4-cyanophenyl)-N-(6-(4-((((1r,3r)-3-((2-(2,6-dioxopiperidin-3-yl)-1,3-dioxoisoindolin-5-yl)oxy)cyclobutyl)(methyl)amino)methyl)piperidin-1-yl)pyridin-3-yl)-2,5-dimethylpiperazine-1-carboxamide]	≤ 10
CCN(CC1CCN(c2ccc(NC(=O)N3C[C@H](C)N(c4ccc(C#N)c(Cl)c4)C[C@H]3C)cn2)CC1)C1CC(Oc2ccc3c(c2)C(=O)N(C2CCC(=O)NC2=O)C3=O)C1 (stereo partly drawn) [Compound 1-10, (2R,5S)-4-(3-chloro-4-cyanophenyl)-N-(6-(4-((((1r,3r)-3-((2-(2,6-dioxopiperidin-3-yl)-1,3-dioxoisoindolin-5-yl)oxy)cyclobutyl)(ethyl)amino)methyl)piperidin-1-yl)pyridin-3-yl)-2,5-dimethylpiperazine-1-carboxamide]	10 to 100
CC(C)N(CC1CCN(c2ccc(NC(=O)N3C[C@H](C)N(c4ccc(C#N)c(Cl)c4)C[C@H]3C)cn2)CC1)C1CC(Oc2ccc3c(c2)C(=O)N(C2CCC(=O)NC2=O)C3=O)C1 (stereo partly drawn) [Compound 1-11, (2R,5S)-4-(3-chloro-4-cyanophenyl)-N-(6-(4-((((1r,3r)-3-((2-(2,6-dioxopiperidin-3-yl)-1,3-dioxoisoindolin-5-yl)oxy)cyclobutyl)(isopropyl)amino)methyl)piperidin-1-yl)pyridin-3-yl)-2,5-dimethylpiperazine-1-carboxamide]	≤ 10
CC(C)N(CC1CCN(c2ccc(NC(=O)N3C[C@H](C)N(c4ccc(C#N)c(Cl)c4)C[C@H]3C)cn2)CC1)C1CC(Oc2ccc3c(c2)C(=O)N(C2CCC(=O)NC2=O)C3=O)C1 (stereo partly drawn) [Compound 1-12, (2R,5S)-4-(3-chloro-4-cyanophenyl)-N-(6-(4-((((1s,3s)-3-((2-(2,6-dioxopiperidin-3-yl)-1,3-dioxoisoindolin-5-yl)oxy)cyclobutyl)(isopropyl)amino)methyl)piperidin-1-yl)pyridin-3-yl)-2,5-dimethylpiperazine-1-carboxamide]	10 to 100
C[C@@H]1CN(c2ccc(C#N)c(Cl)c2)[C@@H](C)CN1C(=O)Nc1ccc(N2CCC(CN3CCN(c4ccc5c(c4)C(=O)N(C4CCC(=O)NC4=O)C5=O)CC3)CC2)nc1 (stereo partly drawn) [Compound 1-13, (2R,5S)-4-(3-chloro-4-cyanophenyl)-N-(6-(4-((4-(2-(2,6-dioxopiperidin-3-yl)-1,3-dioxoisoindolin-5-yl)piperazin-1-yl)methyl)piperidin-1-yl)pyridin-3-yl)-2,5-dimethylpiperazine-1-carboxamide]	≤ 10
C[C@@H]1CN(c2ccc(C#N)c(Cl)c2)[C@@H](C)CN1C(=O)Nc1ccc(N2CCC(CCN3CCN(c4ccc5c(c4)C(=O)N(C4CCC(=O)NC4=O)C5=O)CC3)CC2)nc1 (stereo partly drawn) [Compound 1-19, (2R,5S)-4-(3-chloro-4-cyanophenyl)-N-(6-(4-(2-(4-(2-(2,6-dioxopiperidin-3-yl)-1,3-dioxoisoindolin-5-yl)piperazin-1-yl)ethyl)piperidin-1-yl)pyridin-3-yl)-2,5-dimethylpiperazine-1-carboxamide]	≤ 10
C[C@@H]1CN(c2ccc(C#N)c(Cl)c2)[C@@H](C)CN1C(=O)Nc1ccc(N2CCC(CN3CCN(c4ccc5c(c4)C(=O)N(C4CCC(=O)NC4=O)C5=O)CC3)CC2)cc1F (stereo partly drawn) [Compound 1-23, (2R,5S)-4-(3-chloro-4-cyanophenyl)-N-(4-(4-((4-(2-(2,6-dioxopiperidin-3-yl)-1,3-dioxoisoindolin-5-yl)piperazin-1-yl)methyl)piperidin-1-yl)-2-fluorophenyl)-2,5-dimethylpiperazine-1-carboxamide]	≤ 10
COc1cc(N2C[C@@H](C)N(C(=O)Nc3ccc(N4CCC(CN5CCN(c6ccc7c(c6)C(=O)N(C6CCC(=O)NC6=O)C7=O)CC5)CC4)cc3F)C[C@@H]2C)ccc1C#N (stereo partly drawn) [Compound 1-25, (2R,5S)-4-(4-cyano-3-methoxyphenyl)-N-(4-(4-((4-(2-(2,6-dioxopiperidin-3-yl)-1,3-dioxoisoindolin-5-yl)piperazin-1-yl)methyl)piperidin-1-yl)-2-fluorophenyl)-2,5-dimethylpiperazine-1-carboxamide]	≤ 10
COc1cc(N2C[C@@H](C)N(C(=O)Nc3ccc(N4CCC(CN5CCN(c6ccc7c(c6)CN([C@H]6CCC(=O)NC6=O)C7=O)CC5)CC4)nc3)C[C@@H]2C)ccc1C#N [Compound 1-33, (2R,5S)-4-(4-cyano-3-methoxyphenyl)-N-(6-(4-((4-(2-((S)-2,6-dioxopiperidin-3-yl)-1-oxoisoindolin-5-yl)piperazin-1-yl)methyl)piperidin-1-yl)pyridin-3-yl)-2,5-dimethylpiperazine-1-carboxamide]	≤ 10
COc1cc(N2C[C@@H](C)N(C(=O)Nc3ccc(N4CCC(CN5CCN(c6cc7c(cc6F)C(=O)N(C6CCC(=O)NC6=O)C7=O)CC5)CC4)nc3)C[C@@H]2C)ccc1C#N (stereo partly drawn) [Compound 1-39, (2R,5S)-4-(4-cyano-3-methoxyphenyl)-N-(6-(4-((4-(2-(2,6-dioxopiperidin-3-yl)-6-fluoro-1,3-dioxoisoindolin-5-yl)piperazin-1-yl)methyl)piperidin-1-yl)pyridin-3-yl)-2,5-dimethylpiperazine-1-carboxamide]	≤ 10
C[C@@H]1CN(c2ccc(C#N)c(Cl)c2)[C@@H](C)CN1C(=O)Nc1cnc(N2CCC(CN3CCN(c4cc5c(cc4F)C(=O)N(C4CCC(=O)NC4=O)C5=O)CC3)CC2)nc1 (stereo partly drawn) [Compound 1-41, (2R,5S)-4-(3-chloro-4-cyanophenyl)-N-(2-(4-((4-(2-(2,6-dioxopiperidin-3-yl)-6-fluoro-1,3-dioxoisoindolin-5-yl)piperazin-1-yl)methyl)piperidin-1-yl)pyrimidin-5-yl)-2,5-dimethylpiperazine-1-carboxamide]	≤ 10
C[C@@H]1CN(c2ccc(C#N)c(Cl)c2)[C@@H](C)CN1C(=O)Nc1ccc(N2CCC(CN3CCN(c4ccc5c(c4)CN([C@H]4CCC(=O)NC4=O)C5=O)CC3)CC2)nc1 [Compound 1-44, (2R,5S)-4-(3-chloro-4-cyanophenyl)-N-(6-(4-((4-(2-((S)-2,6-dioxopiperidin-3-yl)-1-oxoisoindolin-5-yl)piperazin-1-yl)methyl)piperidin-1-yl)pyridin-3-yl)-2,5-dimethylpiperazine-1-carboxamide]	≤ 10
C[C@@H]1CN(c2ccc(C#N)c(C(F)(F)F)c2)[C@@H](C)CN1C(=O)Nc1ccc(N2CCC(CN3CCN(c4ccc5c(c4)C(=O)N(C4CCC(=O)NC4=O)C5=O)CC3)CC2)c(F)c1 (stereo partly drawn) [Compound 1-45, (2R,5S)-4-(4-cyano-3-(trifluoromethyl)phenyl)-N-(4-(4-((4-(2-(2,6-dioxopiperidin-3-yl)-1,3-dioxoisoindolin-5-yl)piperazin-1-yl)methyl)piperidin-1-yl)-3-fluorophenyl)-2,5-dimethylpiperazine-1-carboxamide]	≤ 10
